Laboratory results published in PubChem BioAssay AID1963841 (Molecular Pharmacology Branch, DTP, NCI, 2024).

Test system: 439559-082-T-J2-PDC spheroid viability
Assay: Anticancer human tumor 439559-082-T-J2-PDC patient-derived colon adenocarcinoma cell line growth inhibition [POLQ]
Details: spheroids with HUVEC and MSC; for IC50: curve of first compound; for viability, T/C: stronger effect = lower value
Method in brief: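 PDC + HUVEC + MSC complex spheroids; POLQ inhibitors ± partner drugs; top conc. at/near clinical Cmax, else 10 microM (SN-38 1 microM), half-log dilutions; 37 degrees C, 5% CO2.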

[1] = second compound 0.0316 µM, first compound 0.0316 µM
[2] = second compound 0.0316 µM, first compound 0.1 µM
[3] = second compound 0.0316 µM, first compound 0.316 µM
[4] = second compound 0.0316 µM, first compound 1 µM
[5] = second compound 0.0316 µM, first compound 3.16 µM
[6] = second compound 0.0316 µM, first compound 10 µM
[7] = second compound 0.1 µM, first compound 0.0316 µM
[8] = second compound 0.1 µM, first compound 0.1 µM
[9] = second compound 0.1 µM, first compound 0.316 µM
[10] = second compound 0.1 µM, first compound 1 µM
[11] = second compound 0.1 µM, first compound 3.16 µM
[12] = second compound 0.1 µM, first compound 10 µM
[13] = second compound 0.316 µM, first compound 0.0316 µM
[14] = second compound 0.316 µM, first compound 0.1 µM
[15] = second compound 0.316 µM, first compound 0.316 µM
[16] = second compound 0.316 µM, first compound 1 µM
[17] = second compound 0.316 µM, first compound 3.16 µM
[18] = second compound 0.316 µM, first compound 10 µM
[19] = second compound 1 µM, first compound 0.0316 µM
[20] = second compound 1 µM, first compound 0.1 µM
[21] = second compound 1 µM, first compound 0.316 µM
[22] = second compound 1 µM, first compound 1 µM
[23] = second compound 1 µM, first compound 3.16 µM
[24] = second compound 1 µM, first compound 10 µM
[25] = second compound 3.16 µM, first compound 0.0316 µM
[26] = second compound 3.16 µM, first compound 0.1 µM
[27] = second compound 3.16 µM, first compound 0.316 µM
[28] = second compound 3.16 µM, first compound 1 µM
[29] = second compound 3.16 µM, first compound 3.16 µM
[30] = second compound 3.16 µM, first compound 10 µM
[31] = second compound 10 µM, first compound 0.0316 µM
[32] = second compound 10 µM, first compound 0.1 µM
[33] = second compound 10 µM, first compound 0.316 µM
[34] = second compound 10 µM, first compound 1 µM
[35] = second compound 10 µM, first compound 3.16 µM
[36] = second compound 10 µM, first compound 10 µM
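Note: spheroids exposed to compounds for seven days before readout.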
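Throughout, for viability, T/C: 100% = DMSO vehicle control viability.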

COc1cc(C2c3cc4c(cc3C(OC3OC5COC(C)OC5C(O)C3O)C3COC(=O)C23)OCO4)cc(OC)c1O (stereo not drawn) + Nc1ccc(C#CCN(C(=O)Cc2ncc(C(F)(F)F)cc2C(F)(F)F)c2ccc(F)cc2)nn1
IC50 (second compound 0.0316 µM): > 10 µM | IC50 (second compound 0.1 µM): > 10 µM | IC50 (second compound 0.316 µM): > 10 µM | IC50 (second compound 1 µM): > 10 µM | IC50 (second compound 3.16 µM): > 10 µM | IC50 (second compound 10 µM): > 10 µM | viability, T/C [1]: 89.8% | viability, T/C [2]: 110% | viability, T/C [3]: 85.5% | viability, T/C [4]: 79.4% | viability, T/C [5]: 68% | viability, T/C [6]: 71.3% | viability, T/C [7]: 86.2% | viability, T/C [8]: 94.3% | viability, T/C [9]: 84.2% | viability, T/C [10]: 85.5% | viability, T/C [11]: 86.8% | viability, T/C [12]: 81.7% | viability, T/C [13]: 99.5% | viability, T/C [14]: 106% | viability, T/C [15]: 93.2% | viability, T/C [16]: 84.1% | viability, T/C [17]: 80.6% | viability, T/C [18]: 88% | viability, T/C [19]: 104% | viability, T/C [20]: 93.5% | viability, T/C [21]: 92.6% | viability, T/C [22]: 91.5% | viability, T/C [23]: 88.7% | viability, T/C [24]: 70.6% | viability, T/C [25]: 101% | viability, T/C [26]: 109% | viability, T/C [27]: 78.9% | viability, T/C [28]: 84.8% | viability, T/C [29]: 76% | viability, T/C [30]: 75.9% | viability, T/C [31]: 97.5% | viability, T/C [32]: 84.4% | viability, T/C [33]: 77.6% | viability, T/C [34]: 86.2% | viability, T/C [35]: 80% | viability, T/C [36]: 70%

COc1cccc2c1C(=O)c1c(O)c3c(c(O)c1C2=O)CC(O)(C(=O)CO)CC3OC1CC(N)C(O)C(C)O1 (stereo not drawn) + Nc1ccc(C#CCN(C(=O)Cc2ncc(C(F)(F)F)cc2C(F)(F)F)c2ccc(F)cc2)nn1
IC50 (second compound 0.0316 µM): > 10 µM | IC50 (second compound 0.1 µM): > 10 µM | IC50 (second compound 0.316 µM): > 10 µM | IC50 (second compound 1 µM): > 10 µM | IC50 (second compound 3.16 µM): > 10 µM | IC50 (second compound 10 µM): 7.09 µM | viability, T/C [1]: 90.2% | viability, T/C [2]: 83.1% | viability, T/C [3]: 79.2% | viability, T/C [4]: 67.8% | viability, T/C [5]: 60.7% | viability, T/C [6]: 60.5% | viability, T/C [7]: 99.9% | viability, T/C [8]: 98.4% | viability, T/C [9]: 79.8% | viability, T/C [10]: 66.5% | viability, T/C [11]: 58.9% | viability, T/C [12]: 65.1% | viability, T/C [13]: 94.7% | viability, T/C [14]: 82.5% | viability, T/C [15]: 78.7% | viability, T/C [16]: 59.3% | viability, T/C [17]: 58.1% | viability, T/C [18]: 66.7% | viability, T/C [19]: 103% | viability, T/C [20]: 85.5% | viability, T/C [21]: 74.6% | viability, T/C [22]: 64% | viability, T/C [23]: 57.2% | viability, T/C [24]: 55.8% | viability, T/C [25]: 87.5% | viability, T/C [26]: 83.2% | viability, T/C [27]: 61.2% | viability, T/C [28]: 62.4% | viability, T/C [29]: 67.2% | viability, T/C [30]: 57.7% | viability, T/C [31]: 78.8% | viability, T/C [32]: 74.2% | viability, T/C [33]: 70.8% | viability, T/C [34]: 59.7% | viability, T/C [35]: 62.6% | viability, T/C [36]: 45.1%

Nc1ccn(C2OC(CO)C(O)C2(F)F)c(=O)n1 (stereo not drawn) + Nc1ccc(C#CCN(C(=O)Cc2ncc(C(F)(F)F)cc2C(F)(F)F)c2ccc(F)cc2)nn1
IC50 (second compound 0.0316 µM): 0.393 µM | IC50 (second compound 0.1 µM): 0.583 µM | IC50 (second compound 0.316 µM): 0.464 µM | IC50 (second compound 1 µM): 0.519 µM | IC50 (second compound 3.16 µM): 0.615 µM | IC50 (second compound 10 µM): 1.92 µM | viability, T/C [1]: 81.7% | viability, T/C [2]: 88.2% | viability, T/C [3]: 54.1% | viability, T/C [4]: 35.6% | viability, T/C [5]: 32.7% | viability, T/C [6]: 28.2% | viability, T/C [7]: 89.5% | viability, T/C [8]: 90.7% | viability, T/C [9]: 63% | viability, T/C [10]: 38.9% | viability, T/C [11]: 33.9% | viability, T/C [12]: 28.8% | viability, T/C [13]: 91.1% | viability, T/C [14]: 90.2% | viability, T/C [15]: 57.4% | viability, T/C [16]: 35.5% | viability, T/C [17]: 33.2% | viability, T/C [18]: 26.1% | viability, T/C [19]: 86.4% | viability, T/C [20]: 85.6% | viability, T/C [21]: 59.1% | viability, T/C [22]: 37.9% | viability, T/C [23]: 32.7% | viability, T/C [24]: 28.8% | viability, T/C [25]: 86.3% | viability, T/C [26]: 79.3% | viability, T/C [27]: 62.9% | viability, T/C [28]: 39.1% | viability, T/C [29]: 36.1% | viability, T/C [30]: 27.1% | viability, T/C [31]: 90.1% | viability, T/C [32]: 80% | viability, T/C [33]: 81.9% | viability, T/C [34]: 63.4% | viability, T/C [35]: 39.3% | viability, T/C [36]: 35.9%

O=c1[nH]cc(F)c(=O)[nH]1 + Nc1ccc(C#CCN(C(=O)Cc2ncc(C(F)(F)F)cc2C(F)(F)F)c2ccc(F)cc2)nn1
IC50 (second compound 0.0316 µM): > 10 µM | IC50 (second compound 0.1 µM): > 10 µM | IC50 (second compound 0.316 µM): > 10 µM | IC50 (second compound 1 µM): > 10 µM | IC50 (second compound 3.16 µM): > 10 µM | IC50 (second compound 10 µM): > 10 µM | viability, T/C [1]: 105% | viability, T/C [2]: 112% | viability, T/C [3]: 101% | viability, T/C [4]: 98% | viability, T/C [5]: 90.2% | viability, T/C [6]: 87.5% | viability, T/C [7]: 115% | viability, T/C [8]: 97.4% | viability, T/C [9]: 91.4% | viability, T/C [10]: 92% | viability, T/C [11]: 86.5% | viability, T/C [12]: 82.5% | viability, T/C [13]: 116% | viability, T/C [14]: 104% | viability, T/C [15]: 105% | viability, T/C [16]: 95.9% | viability, T/C [17]: 83.1% | viability, T/C [18]: 85.3% | viability, T/C [19]: 104% | viability, T/C [20]: 94.8% | viability, T/C [21]: 101% | viability, T/C [22]: 81.9% | viability, T/C [23]: 84.5% | viability, T/C [24]: 81.4% | viability, T/C [25]: 103% | viability, T/C [26]: 99.9% | viability, T/C [27]: 84.2% | viability, T/C [28]: 85.5% | viability, T/C [29]: 86.6% | viability, T/C [30]: 80.5% | viability, T/C [31]: 109% | viability, T/C [32]: 91.3% | viability, T/C [33]: 102% | viability, T/C [34]: 83.4% | viability, T/C [35]: 87.9% | viability, T/C [36]: 78.7%
